Reference: paper PMC6210072 (ACS Omega, 2018)

Columns and labels:
[1] = biological target: PARP2 (Homo sapiens, UniProt Q9UGN5); assay type: biochemical
[2] = biological target: ROCK2 (Homo sapiens, UniProt O75116); assay type: biochemical; conditions: read-out: ROCK2
Chain of ROCK2 (O75116 whole entry): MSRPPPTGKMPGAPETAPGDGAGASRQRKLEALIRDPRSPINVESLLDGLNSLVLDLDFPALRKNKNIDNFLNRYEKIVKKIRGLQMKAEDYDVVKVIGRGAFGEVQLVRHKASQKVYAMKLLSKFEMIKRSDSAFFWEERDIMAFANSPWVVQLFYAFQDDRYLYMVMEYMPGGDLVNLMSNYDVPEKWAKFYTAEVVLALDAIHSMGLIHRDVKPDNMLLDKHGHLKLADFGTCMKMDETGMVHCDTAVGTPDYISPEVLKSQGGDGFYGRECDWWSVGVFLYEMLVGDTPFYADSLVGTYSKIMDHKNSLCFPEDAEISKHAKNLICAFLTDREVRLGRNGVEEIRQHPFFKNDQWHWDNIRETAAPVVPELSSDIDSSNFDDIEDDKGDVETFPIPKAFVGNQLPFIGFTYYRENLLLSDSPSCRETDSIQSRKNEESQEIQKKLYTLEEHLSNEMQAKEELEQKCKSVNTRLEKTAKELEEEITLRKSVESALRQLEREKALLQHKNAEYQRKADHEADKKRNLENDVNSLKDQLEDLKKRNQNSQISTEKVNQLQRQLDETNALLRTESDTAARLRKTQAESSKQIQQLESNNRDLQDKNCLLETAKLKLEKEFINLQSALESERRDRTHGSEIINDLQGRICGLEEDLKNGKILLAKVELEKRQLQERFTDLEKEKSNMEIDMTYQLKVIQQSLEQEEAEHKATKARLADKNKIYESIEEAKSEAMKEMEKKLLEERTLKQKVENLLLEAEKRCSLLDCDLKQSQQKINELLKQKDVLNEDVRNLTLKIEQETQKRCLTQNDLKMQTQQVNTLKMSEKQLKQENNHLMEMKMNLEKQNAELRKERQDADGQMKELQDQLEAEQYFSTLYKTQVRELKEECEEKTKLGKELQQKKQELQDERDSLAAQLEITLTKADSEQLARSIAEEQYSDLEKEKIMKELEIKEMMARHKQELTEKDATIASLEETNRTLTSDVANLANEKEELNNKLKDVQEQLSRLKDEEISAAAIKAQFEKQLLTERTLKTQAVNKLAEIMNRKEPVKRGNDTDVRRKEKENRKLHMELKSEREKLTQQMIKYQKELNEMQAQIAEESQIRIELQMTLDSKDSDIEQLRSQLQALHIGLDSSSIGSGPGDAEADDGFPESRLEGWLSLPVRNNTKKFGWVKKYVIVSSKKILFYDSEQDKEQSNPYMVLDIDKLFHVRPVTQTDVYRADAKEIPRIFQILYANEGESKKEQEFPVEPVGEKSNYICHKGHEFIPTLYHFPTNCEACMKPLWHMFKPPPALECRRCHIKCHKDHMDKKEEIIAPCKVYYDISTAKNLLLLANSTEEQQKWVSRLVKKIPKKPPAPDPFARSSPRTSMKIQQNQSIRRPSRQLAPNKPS

Chain of PARP2 (Q9UGN5 whole entry): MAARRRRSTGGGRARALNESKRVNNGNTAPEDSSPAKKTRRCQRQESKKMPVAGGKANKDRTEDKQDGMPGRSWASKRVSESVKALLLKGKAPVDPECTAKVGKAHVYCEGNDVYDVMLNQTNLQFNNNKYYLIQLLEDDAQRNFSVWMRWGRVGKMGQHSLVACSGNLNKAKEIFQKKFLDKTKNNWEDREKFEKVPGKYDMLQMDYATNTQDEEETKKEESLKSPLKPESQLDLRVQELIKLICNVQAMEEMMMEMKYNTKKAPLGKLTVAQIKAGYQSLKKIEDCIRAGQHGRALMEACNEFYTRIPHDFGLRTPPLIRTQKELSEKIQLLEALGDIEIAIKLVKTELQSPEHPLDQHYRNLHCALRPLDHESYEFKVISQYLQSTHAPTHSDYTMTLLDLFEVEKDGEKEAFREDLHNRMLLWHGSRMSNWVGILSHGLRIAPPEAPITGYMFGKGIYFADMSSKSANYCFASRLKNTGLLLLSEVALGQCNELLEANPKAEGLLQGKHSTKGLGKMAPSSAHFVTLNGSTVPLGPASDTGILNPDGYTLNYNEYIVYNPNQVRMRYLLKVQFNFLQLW

Structure (SMILES): O=S(=O)(c1cccc2c(O)nccc12)N1CCCNCC1 [compound 4, hydroxyfasudil]
- IC50 [1]: 35.1 µM

Structure (SMILES): O=C(COc1cccc2c(=O)[nH]ccc12)c1ccccc1 [compound 6, UPF 1069]
- inhibition at 10 µM [2]: 20.5 ± 0.4%
